# Values of other authors in PMC5760531, “Action Potential Recording and Pro-arrhythmia Risk Analysis in Human Ventricular Trabeculae” (Frontiers in Physiology, 2018).
# Test system: Nav1.5
# Parameters: method as in Qu and Vargas, 2015
# Conditions: previous experiments; ref Qu and Vargas, 2015; cited from earlier work
smiles,measurement,value
"Nc1nnc(-c2cccc(Cl)c2Cl)c(N)n1 [LAMOTRIGINE, Lamotrigine]",IC50,40 µM
